In US11173119B2 (YALE UNIVERSITY, priority 2012, dated 2021):

Legend:
[1] = tested on: Splenocytes; assay: IL-2 bioactivity study (splenocyte stimulation, IFN-γ ELISA); type: cell-based, B6 mouse; conditions: IFN-γ production correlated with IL-2 concentration
Protocol: Splenocytes were isolated from a B6 mouse and 1×10^6 cells were added in 500 μL T cell media to each well of a 24 well plate previously coated with 10 μg/mL anti-CD3 (coated overnight in 1×PBS at 4° C.) and 5 μg/mL soluble anti-CD28 (BD Biosciences). The media from release studies was filtered through a 0.22-μm syringe filter (Whatman) and 500 μL was added to the wells. Additionally all wells contained 5 μg/mL, soluble anti-CD28 (BD Biosciences). […] Cells were incubated at 37° C. and cellular stimulation was assessed after 72 hours using an IFN-γ ELISA (BD Biosciences).

[2] = tested on: B16 melanomas; assay: In vivo subcutaneous tumor studies, intratumoral nanolipogel therapy; design: species or system B6 albino mice
Protocol: B16-F10 cells (ATCC) were cultured in DMEM (Gibco) and suspended at 2×10^6 cells/mL in 1×PBS (kept on ice) directly prior to injection. For subcutaneous tumor studies, female 6-8 week-old B6 albino mice were sedated with AErrane (isofluorane; Baxter) and the right hind flank was shaved prior to a subcutaneous injection of 50 μL of the cellular suspension. Tumors were monitored and treatment began when the average tumor area reached approximately 5.5 mm^2 (8-10 days after B16 injection; mice were rearranged to normalize tumor sizes across groups).
Observers were blinded for tumor area and survival studies. […] Five mice per group were euthanized at different timepoints and tumors were extracted and weighed.

[3] = tested on: B16 lung metastases; assay: Metastatic B16 lung tumor study, intravenous nanolipogel therapy; type: in vivo, B6 mice; conditions: two weeks after initial treatment
Protocol: Metastatic B16 melanomas were established in female 6-8 week old B6 mice by intravenous (tail vein) administration of 50 μL of B16 cellular suspension as described by Gorelik, et al. Nat Med 7, 1118-1122 (2001). […] After sacrifice, the chest cavity was exposed and the lungs perfused by making a small incision in the right atrium and injecting 10 mL of cold PBS into the right ventricle. Lung metastates were counted by blinded observers who recorded dark circular masses ranging from 0.1-3 mm as unique tumors.

[4] = cited from earlier work

Cc1cccc(-c2[nH]c(C(C)(C)C)nc2-c2ccc3c(c2)OCO3)n1.Cl [SB, 2-(5-benzo[1,3]dioxol-5-yl-2-tert-butyl-3H-imidazol-4-yl)-6-methylpyridine hydrochloride]
bioactivity after lipogel incorporation [1]: unaffected
survival ([2]; intratumoral): did not improve survival
tumor growth (tumor area versus time) ([2]; weekly intratumoral administration): failed to delay tumor growth
number of lung tumors [3]: failed to reduce the number of lung tumors
Log P [4]: 4.33
